Measured values taken from paper PMC5573760 (Cancer Chemotherapy and Pharmacology, 2017).

Assays:
clinical = details: for Tmax: male, human, in vivo, iv, t max
Protocol: All subjects gave written informed consent; the study was conducted at PRA Health Sciences (Zuidlaren, The Netherlands) in accordance with the Declaration of Helsinki and was approved by an accredited institutional ethics committee (Medisch Ethische Toetsings Commissie, Assen, The Netherlands).
Subjects remained fasting until 2-h after the end of the infusion. Volunteers stayed in-house until 14 days after the application and subsequently urine and feces were collected for 24-h on Day 16, 20, 27 and 34 if necessary, cf. below.
Urine was collected pre-dose, at 0–12-h and 12–24 h after the start of the infusion and thereafter over 24-h intervals on Day 2 to Day 14 as well as on Day 16, 20, 27 and 34 (±1 day). Cumulative 24-h fecal samples were collected from Day 1 (day of infusion) to Day 14 and as well as on Day 16, 20, 27 and 34 (±1 day). […] The excreted radioactivity between ambulant visits during the prolongation phase of the clinical study was calculated using interpolation to get a more realistic total excretion value of all subjects (see "Pharmacokinetic analysis").
All samples were frozen at −70 °C and analyzed within 60 days of sample collection.
For blood/plasma ratio determination, total radioactivity in urine and feces well as data from HPLC analysis data from radioactivity measurement by liquid scintillation counting (LSC) were considered. The amount of radioactivity recovered in the excreta (A E) was related to the administered radioactive dose to establish the radioactive balance. Arithmetic means and coefficients of variation (CV) were calculated for these percentages. […] Cumulative excretion was calculated as sum of the collection intervals. The elimination of the total radioactivity in urine and feces for time-points beyond day 14 was performed by log-linear extrapolation between analyzed time-points. Amounts of radioactivity excreted in urine and feces between two ambulant visits were calculated per interpolated day by linear interpolation of log-transformed excretion data separately per matrix (lnA E(interpolated day) = Δdays × [lnA E(Visit i + 1) − lnA E(Visit i)]/[day (Visit i + 1) − day (Visit i)] + lnA E(Visit i), with A E given as amount of radioactivity excreted in matrix per day and Δdays being the difference between the calculated day and the last available visit with A E > 0). In case no feces sample was provided on an ambulant visit, this visit was neglected for interpolation. A similar approach has been described earlier. The concentration/amount for each component of each sample/time-point was calculated by multiplying the total radioactivity concentration/amount of each sample with %-area of each component obtained after off-line HPLC separation. The amount of radioactivity in urine and feces at late time-points where no component was detected was distributed in the same percentage to the component (s) present at the time-point before.
Compartment-free analysis was performed employing WinNonlin software (version 5.3, Pharsight Certara, Princton, NJ, USA).
Pharmacokinetic parameters were evaluated by descriptive data analysis without formal hypothesis testing by calculating either medians (t max, t last) or geometric means and %CV (remaining parameters). Excretion data (urine, feces, total) were evaluated by arithmetic means.

[1] = Mass balance: excretion of radioactivity, copanlisib and metabolites in urine and feces; format: in vivo, human; details: 6 subjects; for Amount excreted in feces as this component, arithmetic mean (range) / Amount excreted in urine as this component, arithmetic mean (range): HPLC with off-line radioactivity detection; for Amount of dose recovered as this component in urine and feces combined: urine plus feces
Protocol: After pooling and homogenization of urine and feces samples per time interval, aliquots were stored at −20 °C for total radioactivity determination and at −70°C for metabolic profiling (including blood/plasma samples). For determination of total radioactivity, samples were analyzed with a Perkin Elmer Tri-Carb™ 3100 TR liquid scintillation analyzer (Perkin Elmer, Waltham, MA, USA) with quenching correction. For metabolite profiling, plasma samples were treated with a mixture of acetonitrile (ACN) +0.2% acetic acid, after shaking and centrifugation, the supernatant was concentrated. Urine and feces samples were treated with solid-phase extraction (Waters HLB 30 mg, 1 mL, Waters, Milford, MA, USA) and liquid–liquid extraction (ACN + 0.2% trifluoroacetic acid/water, 80:20 volume/volume), respectively. Subsequently samples from plasma, urine and feces were analyzed by HPLC-LSC on Synergi Polar 4 µm 150 × 2 mm (Phenomenex, Aschaffenburg, Germany) with off-line radioactivity detection by Microbeta^2™ Plus liquid scintillation counter with Ultima Flo™ AP scintillation fluid (Packard Instrument BV, Groningen, The Netherlands).
Metabolite patterns in plasma, urine and feces were studied by the HPLC method with off-line radioactivity detection described above.
A similar approach has been described earlier.

clinical target (PI3K) = tested on: clinical target (PI3K); parameters: method as in Bayer AG, data on file; details: ref Bayer AG, data on file; cited from earlier work

| SMILES | Amount excreted in feces as this component, arithmetic mean (range) [1] | Amount of dose recovered as this component in urine and feces combined [1] | Amount excreted in urine as this component, arithmetic mean (range) [1] | Tmax (clinical; median) [h] | Tmax (clinical; range) [h] | Range of AUC (0–t last) (LC–MS) (clinical; plasma, t last defined by the time-point with detectable radioactivity, range of 6 subjects) | Affinity to the clinical target relative to parent compound (clinical target (PI3K)) |
| --- | --- | --- | --- | --- | --- | --- | --- |
| COc1c(OCCCN2CCOCC2=O)ccc2c1N=C(NC(=O)c1cnc(N)nc1)N1CCN=C21 [M1] | 6.39 (4.34–8.66) % of dose | 11.1 % of dose | 4.47 (2.53–6.79) % of dose | 6 | 3 to 10 | 4.36–37.8 ng-Eq·h/mL | same order of magnitude as found for the parent compound |
| COc1c(OCCCNCCO)ccc2c1N=C(NC(=O)c1cnc(N)nc1)N1CCN=C21 [M3] | 7.32 (5.61–11.6) % of dose | – | 0.32 (0–0.62) % of dose | – | – | – | – |
| COc1c(OCCCN(C=O)CCO)ccc2c1N=C(NC(=O)c1cnc(N)nc1)N1CCN=C21 [M21] | – | < 2 % of dose | – | – | – | – | – |

Now from value to compound, other results behind:

| Amount excreted in feces as this component, arithmetic mean (range) [1] | Amount of dose recovered as this component in urine and feces combined [1] | Amount excreted in urine as this component, arithmetic mean (range) [1] | SMILES | Tmax (clinical; median) [h] | Tmax (clinical; range) [h] | Range of AUC (0–t last) (LC–MS) (clinical; plasma, t last defined by the time-point with detectable radioactivity, range of 6 subjects) | Affinity to the clinical target relative to parent compound (clinical target (PI3K)) |
| --- | --- | --- | --- | --- | --- | --- | --- |
| 11.8 (9.91–13.0) % of dose | – | 0.34 (0.10–0.52) % of dose | COc1c(OCCC(=O)O)ccc2c1N=C(NC(=O)c1cnc(N)nc1)N1CCN=C21 [M2] | – | – | – | – |
| 5.61 (1.74–9.53) % of dose | – | 0.15 (0.04–0.32) % of dose | COc1c(O)ccc2c1N=C(NC(=O)c1cnc(N)nc1)N1CCN=C21 [M4] | – | – | – | – |
| – | < 2 % of dose | – | COc1c(OCCCO)ccc2c1N=C(NC(=O)c1cnc(N)nc1)N1CCN=C21 [M15] | – | – | – | – |
